Reference: patent publication US10537535B2, “Histone deacetylase inhibitors” (The Regents of the University of California, priority 2015, dated 2020)

Columns and labels:
pGMR-HTTQ120 flies = settings: orally-administered, previous studies; cited from earlier work
[1] = test system: gene expression in the antenna of Drosophila melanogaster; test: RNA-seq transcriptome analysis of Drosophila antennae after exposure or feeding; assay type: in vivo; settings: 5 days; diacetyl 1% headspace, SB/VA 10 mM in food; vs control
Source text: In order to examine the physiological effects of long-term exposure to an odorant, flies were maintained in vials with circulating volatiles from headspace of a low concentration (1% in paraffin oil) of the odorant diacetyl, which acts on a number of different receptor pathways in Drosophila. In a similar manner to previous odor-exposure studies, flies were exposed to diacetyl for 5 days and performed an RNA-seq analysis of the antennae, which are known odor-detecting organs. The transcriptome was compared with a control group of age-matched flies that were exposed to the headspace of the solvent paraffin oil (PO, FIG. 3A).
Flies were exposed to diacetyl (2,3-Butanedione, B85307, Sigma-Aldrich, St. Louis, Mo.) by placing them in vials in a cylindrical closed container (112 mm diameter×151 mm height) along with an odor-containing glass vial. The odorant was dissolved in 10 mL paraffin oil at 1% dilution. For a given exposure protocol, two groups of flies were prepared: those exposed to 1% diacetyl headspace and those exposed to paraffin oil headspace alone (control flies). Adult male flies aged 1 d were transferred to fly vials containing fresh medium, and put into the container with the odor vial. At the end of the fifth day of exposure, flies were collected, and their antennae were dissected for RNA extraction. All treatments and experiments were performed at room temperature. For the recovery experiment, flies were transferred again to the container containing a glass vial of paraffin oil after 5 days of diacetyl exposure. At the end of the fifth day of recovery, flies were collected, and their antennae were dissected for RNA extraction.
Sodium butyrate (B5887, Sigma-Aldrich) or valproic acid (P4543, Sigma-Aldrich) were dissolved in normal fly food medium at the final concentration of 10 mM. Three groups of flies were prepared: those treated with one of the HDAC inhibitors and those without HDAC inhibitor treatment (control flies). Adult flies aged 1 d were transferred to fly vials containing medium with or without a HDAC inhibitor. At the end of the fifth day of treatment, flies were collected, and their antennae were dissected for RNA extraction. All treatments and experiments were performed at room temperature.
The second and third antennal segments from 40-60 male flies after treatment were carefully hand-dissected from the head, collected in 1.5 ml microfuge tubes kept cold in liquid nitrogen. Antennae were mechanically crushed with disposable RNAse-free plastic pestles, and total RNA was isolated using a Trizol-based protocol. cDNA libraries were prepared from total RNA (300-1000 ng/sample) using the Illumina TruSeq RNA Library Preparation Kit (Illumina Catalog #RS-122-2001). Samples were submitted to the UCR IIGB sequencing core for high-throughput sequencing using the Illumina HiSeq2500 platform. Raw reads were aligned to the Drosophila melanogaster reference genome (dmel-all-chromosome-r5.48.fasta) with Tophat2, and a count table of reads overlapping with exonic regions of genes was generated by the UCR bioinformatics core. The numbers of biological replicates are: 2, day 5 paraffin oil; 1, day 5 diacetyl; 2, day 5 mock; 2, day 5 sodium butyrate; 2, day 5 valproic acid; 2, day 10 paraffin oil recovery; 2, day 10 diacetyl recovery.
The read count table for all the genes were then imported into R and a statistical analysis of differential gene expression using the DESeq package (1.22.0) was performed. […] The gene list analysis was performed using the GO Term Mapper (http://go.princeton.edu/) with Generic GO slim datasets, and the Statistical overrepresentation test was performed using the PANTHER classification (http://www.pantherdb.org/) system with GO complete datasets.
This example investigates the overlap among genes modulated by diacetyl as compared to sodium butyrate and valproic acid, which are known HDAC inhibitors. […]

Gr63a = test: Whole mount RNA in situ of adult Drosophila antenna Gr63a; assay type: in vivo; settings: 5 days; odor 1 1% on filter paper, sodium butyrate 10 mM fed; vs untreated or mock
Description: For five days, Drosophila were exposed to 1% diacetyl (odor 1) on filter paper; fed known HDAC inhibitor sodium butyrate (Na-but; 10 mM); or fed known HDAC inhibitor valproic acid (10 mM).

Structure (SMILES)	photoreceptor degeneration in Huntington's model Drosophila (pGMR-HTTQ120 flies)	number of differentially-expressed genes in antennal transcriptome [1] [genes]	number of genes down-regulated >2-fold [1] [genes]	number of genes up-regulated >2-fold [1] [genes]	Gr63a expression in antenna (RNA in situ) (Gr63a)
O=C(CCCCCCC(=O)Nc1ccccc1)NO [SAHA, suberoylanilide hydroxamic acid]	significantly reduce photoreceptor degeneration				
CCCC(=O)[O-].[Na+] [sodium butyrate, Sodium butyrate, reference compound]	significantly reduce photoreceptor degeneration	558	366	192	over-expression
CCCC(CCC)C(=O)O [valproic acid, reference compound]		940	772	168	
